The values below come from patent publication US20130052646A1, “POSITIVE AND NEGATIVE […] FOR USE IN TH[…]” (Mascoma Corporation, priority 2009, published 2013).

Each structure is given as a SMILES string.

What all share (assay type): cell-based, Clostridium thermocellum
For assay [1], the system named is C. thermocellum. In words: Plating on 8-azahypoxanthine (hpt negative selection, complementation). The settings on record: 500 ug/ml 8-AzaH, FIG. 26. As for the experimental part: Plasmid pMU1657 was transformed into the wild type C. thermocellum strain 1313 and selected for on chloramphenicol. Several colonies were selected and the transformed plasmid was verified by PCR. A colony was diluted into C. thermocellum growth medium and grown overnight. The following morning the dilution closest to an O.D of ˜1.0 was serially diluted and plated on defined medium containing 500 ug/ml 8-azahypoxanthine. Two days later, colonies were observed on the dilution representing 10^−3. Six colonies were selected and PCR screens were performed to verify that the hpt gene had been deleted from the chromosome. After PCR amplification, the expected size of the wild type product having no deletion is 3380 bp and the expected size of the hpt deletion is 2820 bp. […] The colonies were subsequently screened by PCR amplification to confirm that the plasmid had been cured (or lost). In FIG. 25, lane (P) represents the plasmid control that is 3750 bp in size. Colonies that have lost the plasmid would have no product migrating in the lane. The lack of product in lanes 1-6 representing the six different colonies confirm that the plasmid had been cured.
To provide stronger support for this conclusion, the knockout plasmid was reintroduced to look for complementation of the phenotype. […]

Assay [2] deals with C. thermocellum. In words: Plating of cured Δhpt strain on thiamphenicol. As to conditions: plasmid-cured Δhpt strain; after 5 days. On the procedure: To verify this, the new strain was grown up overnight and plated on thiamphenicol.
Assay [3] relates to C. thermocellum. The assay can be described thus: Growth in rich medium with uracil supplementation. As to conditions: ΔpyrF strain; rich medium with additional 40 μg/ml uracil; 55° C. On the procedure: Growth rate measurements were performed in a 200 μl volume in a 96-well plate at 55° C. The optical density at 600 nm was read by a Powerwave XS platereader customized by the manufacturer to incubate up to 68° C. (BioTek). The plates were shaken continuously and read at three minute intervals. Each sample was measured in quadruplicate. The specific growth rate (0 was determined by measuring the slope of the natural log-transformed OD readings. A two hour sliding window of OD readings between 0.08 and 1.00 were used for determination of maximum rate μmax. In all cases, the R-squared value was greater than 0.99.
The growth of the pta::gapDHp-cat strain was compared to the wt and ΔpyrF strains in rich medium, with and without uracil supplementation. […] End product analysis was performed on batch fermentations started at pH 7.0 with 5 g/l cellobiose as the primary carbon source under anaerobic conditions with a nitrogen atmosphere and 80 ml working volume. After 48 hours of fermentation the wt and ΔpyrF strain produced about 1 g/l of acetic acid whereas the acetic acid production of the pta::gapDHp-cat was indistinguishable from background levels (average 0.03 g/l).

Assay [4] relates to C. thermocellum. The assay can be described thus: Plating on media containing 5-FOA (pyrF negative selection). The settings on record: for colony survival after plating on 5-FOA: rich media containing 500 μg of 5-FOA; for growth on media containing 5-FOA: FIG. 8. As for the experimental part: Plasmid pMU482 was transformed into the wild type C. thermocellum strain 1313 and selected on a rich media containing thyamphenicol (at the concentration of 6 μg/ml) to select for cells containing the cat marker encoded on the plasmid. A schematic displaying the creation of the knockout vector is depicted in FIG. 2. Several colonies that resulted from the selection scheme were selected for PCR analysis to confirm that the plasmid had been transformed into the cells. A transformed colony was diluted into liquid, rich medium containing thyamphenicol at the concentration of 6 μg/ml and grown overnight. A culture containing pMU102 (control plasmid) was also grown similarly. The next day, each culture was serially diluted by ten fold (up to 10^−3) using fresh, rich media and 100 μL of the undiluted culture. Each of the dilutions were plated on rich media containing 500 μg of 5-FOA. A schematic of this plating strategy is depicted in FIG. 3.
The plasmid-free C. thermocellum ΔpyrF strain created above was tested to confirm that negative selection could be appropriately applied. Cells were grown and plated using media containing the toxic analog 5-fluoroorotic acid (5-FOA). The protein product of the pyrF gene converts 5-FOA into a toxic compound. Thus, the C. thermocellum ΔpyrF strain should be resistant to 5-FOA, but the wild type or a complemented strain should be susceptible to 5-FOA and unable to grow.

Assay [5] concerns C. thermocellum. The assay can be described thus: Plating in the presence of FUDR (tdk negative selection). The settings on record: FIG. 18. As for the experimental part:
To this end, the C. thermocellum pyrF::tdk strain and the control C. thermocellum ΔpyrF strain were plated in the presence of 10 μg/ml FUDR. For each culture, a 10 dilution was used for the plating.

`O=c1[nH]cnc2nn[nH]c12` [8-azahypoxanthine]: the “sensitivity to 8-azahypoxanthine” value in assay [1] (Δhpt strain containing complementing plasmid pMU1657) is “sensitivity comparable to wild type levels”; in assay [1] (Δhpt strain), “completely insensitive”.
As to `CS(=O)(=O)c1ccc([C@@H](O)[C@@H](CO)NC(=O)C(Cl)Cl)cc1` [thiamphenicol], the “resistant colonies on thiamphenicol” value in assay [2] is “no thiamphenicol resistant colonies were observed”.
Regarding `O=c1cc[nH]c(=O)[nH]1` [uracil], the “effect of uracil supplementation on growth” value in assay [3] is given as “eliminated the growth defect”.
Consider `O=C(O)c1[nH]c(=O)[nH]c(=O)c1F` [5-FOA, 5-fluoroorotic acid], for which the results for the “colony survival after plating on 5-FOA” value in assay [4] (colonies containing wild-type pyrF) and in assay [4] (colonies that contained the pyrF disruption) were “did not survive” and “visible”, respectively. For the same compound, the “growth on media containing 5-FOA” value in assay [4] (plasmid-free ΔpyrF strain (also with control plasmid pMU102)) is reported as “able to grow”; in assay [4] (ΔpyrF strain transformed with complementing plasmid pMU612 expressing pyrF), “no growth”.
Regarding `O=c1[nH]c(=O)n([C@H]2C[C@H](O)[C@@H](CO)O2)cc1F` [FUDR, fluorodeoxyuridine], the “growth in the presence of FUDR” value in assay [5] (control ΔpyrF strain without tdk, 10 μg/ml FUDR) is reported as “survived”; in assay [5] (pyrF::tdk strain, 10 μg/ml FUDR with addition of thymidine) it was “did grow”; in assay [5] (pyrF::tdk strain, 10 μg/ml FUDR), “did not grow”.
